Experimental data published in PubChem BioAssay (NCI).
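In this assay, cells in 96-well plates receive the compound at five concentrations for 48 hours. Endpoints are linearly interpolated between the surrounding concentrations. Abbreviation: GI50, concentration required for 50% inhibition of growth. Definition used: TGI = concentration required for complete inhibition of growth.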

Columns and labels:
Test in all cases: DTP human tumour cell line panel, 48 h
SR leukemia = system: SR leukemia
SF-539 CNS = system: SF-539 CNS
PC-3 prostate = system: PC-3 prostate
MDA-MB-231 breast = system: MDA-MB-231 breast
NCI/ADR-RES ovarian = system: NCI/ADR-RES ovarian
SW-620 colon = system: SW-620 colon
BT-549 breast = system: BT-549 breast
OVCAR-3 ovarian = system: OVCAR-3 ovarian
A549 NSCLC = system: A549 NSCLC
MOLT-4 leukemia = system: MOLT-4 leukemia

Row | SMILES | TGI (SR leukemia) | TGI (SF-539 CNS) | TGI (PC-3 prostate) | TGI (MDA-MB-231 breast) | TGI (NCI/ADR-RES ovarian) | TGI (SW-620 colon) | TGI (BT-549 breast) | TGI (OVCAR-3 ovarian) | TGI (A549 NSCLC) | TGI (MOLT-4 leukemia) | GI50 (SR leukemia) | GI50 (SF-539 CNS) | GI50 (PC-3 prostate) | GI50 (MDA-MB-231 breast) | GI50 (NCI/ADR-RES ovarian) | GI50 (SW-620 colon) | GI50 (BT-549 breast) | GI50 (OVCAR-3 ovarian) | GI50 (A549 NSCLC) | GI50 (MOLT-4 leukemia)
1 | O=S(=O)(c1ccccc1)C1CN(Cc2ccccc2)CCN(Cc2ccccc2)C1 | > 100 µM | > 100 µM | 45.3 µM | > 100 µM | 78.1 µM | > 78.7 µM | > 100 µM | > 95.8 µM | > 100 µM | > 100 µM |  |  |  |  |  |  |  |  |  | 
2 | CCCNNC(=O)c1ccc(CNC(=O)/C=C/c2ccccc2)cc1 | > 100 µM | > 100 µM | > 100 µM | > 100 µM |  | 1.06 µM | > 100 µM | 1.8 µM | > 100 µM | > 100 µM | 0.18 µM | 0.191 µM | 0.173 µM | 0.348 µM | 0.111 µM | 0.125 µM | 1.43 µM | 0.246 µM | 0.31 µM | 0.106 µM
3 | O=C(CN/C=C\C(=O)c1cc(Cl)ccc1Cl)c1ccccc1 | > 100 µM | 38.8 µM | 67 µM | 47.5 µM | 41.2 µM | > 100 µM | 74.7 µM | 85.7 µM | > 100 µM | > 100 µM | > 100 µM | 20.4 µM | 26 µM | 21.6 µM | 19.7 µM | 32 µM | 27.4 µM | 26 µM | 67 µM | > 100 µM
4 | CC(=O)/C=C/c1ccc(N(C)Cc2ccc(C(C)(C)C)cc2)cc1 | 499 µM | 316 µM | 465 µM | 293 µM | 271 µM | 441 µM | 277 µM | 264 µM | 788 µM | 425 µM | 137 µM | 161 µM | 97.2 µM | 122 µM | 114 µM | 156 µM | 133 µM | 126 µM | 156 µM | 116 µM
5 | O=C1/C(=c2\c3ccccc3n3c(=O)c4ccccc4nc23)Nc2ccccc21 | > 100 µM | > 100 µM | > 100 µM | > 100 µM | > 100 µM | > 100 µM | > 100 µM | > 100 µM | > 100 µM | > 31.6 µM |  |  |  |  |  |  |  |  |  | 
6 | NS(=O)(=O)c1ccc(NCc2cnc3ccccc3c2)cc1 | > 100 µM | > 100 µM | > 100 µM | > 100 µM | > 100 µM | > 100 µM | > 100 µM | > 100 µM | > 100 µM | > 100 µM |  |  |  |  |  |  |  |  |  | 
7 | COc1cc2c(cc1C)NC(=O)/C2=C/c1c(C)nc2sc(C)cn12 | > 100 µM | > 100 µM | > 100 µM | > 100 µM | > 100 µM | > 100 µM | > 100 µM | > 100 µM | > 100 µM | > 100 µM | 22.6 µM | > 100 µM | 34.3 µM | 40.9 µM | 45.5 µM | 63 µM | 40.4 µM | 74.7 µM | 60.8 µM | 34.4 µM
8 | Cc1ccc(S(=O)(=O)N2C/C(=C\c3cc(F)cc(F)c3)C(=O)/C(=C/c3cc(F)cc(F)c3)C2)cc1 | 0.296 µM | 2.16 µM | 0.612 µM | 0.867 µM | 12.7 µM | 0.283 µM | 0.709 µM | 1.27 µM | 10.1 µM | 2.11 µM | 0.0364 µM | 0.71 µM | 0.22 µM | 0.285 µM | 0.447 µM | 0.0582 µM | 0.286 µM | 0.408 µM | 2.42 µM | 0.299 µM
9 | COc1ccc(/C=C/C(=O)c2ccc(NC(=O)CSc3nnc(-c4cc(OC)c(OC)c(OC)c4)o3)cc2)cc1 | 4.01 µM | 3.03 µM | 3.3 µM | 3.5 µM | 7.03 µM | 3.6 µM | 2.81 µM | 3.38 µM | 3.53 µM | 5.27 µM | 1.86 µM | 1.64 µM | 1.75 µM | 1.82 µM | 2.42 µM | 1.86 µM | 1.4 µM | 1.78 µM | 1.84 µM | 2.05 µM
10 | COc1ccc2oc(-c3ccc(Cl)cc3)c(N3CCN(C)CC3)c2c1 | 8.12 µM | 3.37 µM | 5.54 µM | 3.27 µM | 5.46 µM | 3.48 µM | 20.7 µM | 4.37 µM | 3.94 µM | 6.95 µM | 2.27 µM | 1.78 µM | 1.69 µM | 1.64 µM | 2.19 µM | 1.82 µM | 6.39 µM | 1.95 µM | 1.83 µM | 2.28 µM
11 | O=C(Nc1ncc(Cc2ccc(Cl)cc2)s1)c1ccc2c(c1)OCCO2 | > 100 µM | 0.571 µM | > 100 µM | 3.15 µM | 5.58 µM | > 100 µM | > 83.4 µM | 0.398 µM | > 100 µM | > 100 µM | 0.0528 µM | 0.0469 µM | 0.047 µM | 0.176 µM | 0.0393 µM | 0.04 µM | 0.207 µM | 0.0335 µM | 0.0696 µM | 0.0877 µM
12 | COc1ccc(/C=C2\CCCC3=C2N=C2SC=NN2C3c2ccc(OC)c(OC)c2)cc1OC (centres undefined) | 66.1 µM | 68.5 µM | > 100 µM | > 100 µM | > 100 µM | 39.3 µM | > 100 µM | 75.4 µM | > 100 µM | > 100 µM | 5.65 µM | 14.6 µM | 37.8 µM | 26 µM | 18.2 µM | 10.1 µM | 21.9 µM | 4.62 µM | 30.5 µM | 21.4 µM
13 | COc1ccc2c(c1)N(CCC1CCCCN1C)c1ccccc1S2 (centres undefined) | 20.9 µM | 74.4 µM | 22.7 µM | 23.6 µM | 25.4 µM | 35.5 µM | 30.4 µM | 31.4 µM | 27.8 µM | 17.2 µM |  |  |  |  |  |  |  |  |  | 
14 | Cc1ccc(C2CC(c3cccc(Nc4ccncc4)c3)=NN2c2ccc(Cl)cc2)cc1 (centres undefined) | 3.52 µM | 3.14 µM | 3.08 µM | 2.78 µM | 3.88 µM | 3.04 µM | 3.4 µM | 3.06 µM | 3.29 µM | 4.12 µM | 1.52 µM | 1.74 µM | 1.59 µM | 1.41 µM | 1.87 µM | 1.55 µM | 1.81 µM | 1.69 µM | 1.73 µM | 1.85 µM
15 | COc1ccc(C2SC(C)C(=O)N2NC(=O)C(O)c2ccccc2)cc1 (centres undefined) | > 100 µM | > 100 µM | > 100 µM | > 100 µM | > 100 µM | > 100 µM | > 100 µM | > 100 µM | > 100 µM | > 100 µM | 63 µM | > 100 µM | > 100 µM | > 100 µM | > 100 µM | > 100 µM | > 100 µM | > 100 µM | > 100 µM | > 100 µM
16 | COc1ccc2c(c1)CC[C@@H]1[C@@H]2CC[C@]2(C)c3c(cc(C(=O)c4ccccc4)c4sccc34)C[C@@H]12 | > 100 µM | > 100 µM | > 100 µM | > 100 µM | > 100 µM | > 100 µM | > 100 µM | > 100 µM | > 100 µM | > 100 µM | > 100 µM | > 100 µM | 38.1 µM | > 100 µM | > 100 µM | > 100 µM | > 100 µM | > 100 µM | > 100 µM | > 100 µM
17 | Cc1cc(NC(=O)C(=O)Cc2nc3ccccc3s2)ccc1Cl | > 100 µM | > 100 µM | > 100 µM | > 100 µM | > 100 µM | > 100 µM | > 100 µM | > 100 µM | > 100 µM | > 100 µM |  |  |  |  |  |  |  |  |  | 
18 | Cn1cc(-c2nc(-c3cn(C)c4ncccc34)cs2)c2cc(F)ccc21 | 17.8 µM | 5.28 µM | 32 µM | 22.2 µM | 8.61 µM | > 100 µM | 37.6 µM | 2.24 µM | > 100 µM | > 100 µM | 0.565 µM | 1.8 µM | 2.13 µM | 3.01 µM | 0.511 µM | 1.23 µM | 2.2 µM | 0.379 µM | 1.74 µM | 3.17 µM
